Tested on: TFEB
Experiment: TFEB nuclear translocation assay, HeLa wt cells
Type: cell-based
Conditions: 2 hrs compound treatment, Table 1 does not say HeLa wt or TRPML1 KO
Outline: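 Using 20× epifluorescence of fixed, anti-TFEB-stained HeLa wt cells treated 2 hrs with compound, nuclear versus perinuclear ring intensity was quantified over four fields per well, yielding AC50 values.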

CN(C)S(=O)(=O)c1ccc(S(=O)(=O)Nc2cccc(C#CC(F)F)c2N2CCCCC2)cc1 [Compound A-921, N4-[3-(3,3-difluoroprop-1-yn-1-yl)-2-(piperidin-1-yl)phenyl]-N1,N1-dimethylbenzene-1,4-disulfonamide]
AC50 (Homo sapiens, HeLa, 2 h): ≤ 2 µM

COCC1(C)CCN(c2ccccc2NS(=O)(=O)Cc2cccc(Cl)c2)CC1 [Compound A-602, 1-(3-chlorophenyl)-N-{2-[4-(methoxymethyl)-4-methylpiperidin-1-yl]phenyl}methanesulfonamide]
AC50 (Homo sapiens, HeLa, 2 h): 2.01 to 8 µM

COCC1(C)CCN(c2ccccc2NS(=O)(=O)Cc2cccc(F)c2)CC1 [Compound A-594, 1-(3-fluorophenyl)-N-{2-[4-(methoxymethyl)-4-methylpiperidin-1-yl]phenyl}methanesulfonamide]
AC50 (Homo sapiens, HeLa, 2 h): 2.01 to 8 µM

CC(c1cccc(F)c1N1CCC(CN2C[C@@H](C)O[C@@H](C)C2)CC1)S(=O)(=O)c1ccc(S(=O)(=O)C(F)F)cc1 (single isomer, unassigned) [Compound A-807, 4-((1-(2-(1-((4-((difluoromethyl)sulfonyl)phenyl)sulfonyl)ethyl)-6-fluorophenyl)piperidin-4-yl)methyl)-2,6-dimethylmorpholine]
AC50 (Homo sapiens, HeLa, 2 h): ≤ 2 µM

CC(C)(C)C(=O)N1CCN(c2ccccc2NS(=O)(=O)c2ccc(S(F)(F)(F)(F)F)cc2)CC1 [Compound A-575, N-{2-[4-(2,2-dimethylpropanoyl)piperazin-1-yl]phenyl}-4-(pentafluoro-λ^6-sulfanyl)benzene-1-sulfonamide]
AC50 (Homo sapiens, HeLa, 2 h): 8.01 to 9.99 µM

CC(C)(C)C(=O)N1CCN(c2ccccc2NS(=O)(=O)c2ccc(OC3CC3)cc2)CC1 [Compound A-576, 4-cyclopropoxy-N-{2-[4-(2,2-dimethylpropanoyl)piperazin-1-yl]phenyl}benzene-1-sulfonamide]
AC50 (Homo sapiens, HeLa, 2 h): ≥ 10 µM

CN(C)CC1(c2ccc(F)cc2F)CCN(c2ccccc2NS(=O)(=O)c2ccc(S(=O)(=O)N(C)C)cc2)CC1 [Compound A-221, N4-{2-[4-(2,4-difluorophenyl)-4-[(dimethylamino)methyl]piperidin-1-yl]phenyl}-N1,N1-dimethylbenzene-1,4-disulfonamide]
AC50 (Homo sapiens, HeLa, 2 h): ≤ 2 µM

CC(c1cc(Cl)cnc1N1CCC(CN2CCC(F)(F)CC2)CC1)S(=O)(=O)c1ccc(S(=O)(=O)N(C)C)cc1 (centres unmarked) [Compound A-958, 4-[1-(5-chloro-2-{4-[(4,4-difluoropiperidin-1-yl)methyl]piperidin-1-yl}pyridin-3-yl)ethanesulfonyl]-N,N-dimethylbenzene-1-sulfonamide]
AC50 (Homo sapiens, HeLa, 2 h): ≤ 2 µM

CN1CC2(CCN(c3ccccc3NS(=O)(=O)c3ccc(S(=N)(=O)N(C)C)cc3)CC2)c2ccc(F)cc21 (centres unmarked) [Compound A-257, 4-[(2-{6-fluoro-1-methyl-1,2-dihydrospiro[indole-3,4′-piperidin]-1′-yl}phenyl)sulfamoyl]-N,N-dimethylbenzene-1-sulfonoimidamide]
AC50 (Homo sapiens, HeLa, 2 h): ≤ 2 µM

CC(c1cccc(F)c1N1CCC(CN2C[C@@H](C)O[C@H](C)C2)CC1)S(=O)(=O)c1ccc(S(=O)(=O)N(C)C)cc1 (single isomer, unassigned) [Compound A-885, 4-[1-[2-(4-{[2,6-dimethylmorpholin-4-yl]methyl}piperidin-1-yl)-3-fluorophenyl]ethanesulfonyl]-N,N-dimethylbenzene-1-sulfonamide]
AC50 (Homo sapiens, HeLa, 2 h): ≤ 2 µM

CC(C)(C)C(=O)N1CCN(c2ccccc2NS(=O)(=O)c2ccc(OCC(F)(F)F)cc2)CC1 [Compound A-591, N-{2-[4-(2,2-dimethylpropanoyl)piperazin-1-yl]phenyl}-4-(2,2,2-trifluoroethoxy)benzene-1-sulfonamide]
AC50 (Homo sapiens, HeLa, 2 h): ≥ 10 µM

CC(c1cccc(F)c1N1CCC(CN2C[C@@H](C)O[C@@H](C)C2)CC1)S(=O)(=O)c1ccc(S(=O)(=O)N(C)C)cc1 (stereo partly drawn) [Compound A-750, 4-{1-[2-(4-{[(2R,6S)-2,6-dimethylmorpholin-4-yl]methyl}piperidin-1-yl)-3-fluorophenyl]ethanesulfonyl}-N,N-dimethylbenzene-1-sulfonamide]
AC50 (Homo sapiens, HeLa, 2 h): ≤ 2 µM

CC(C)(C)C(=O)N1CCN(c2ccccc2NS(=O)(=O)c2ccc(OC3CCCC3)cc2)CC1 [Compound A-536, 4-(cyclopentyloxy)-N-{2-[4-(2,2-dimethylpropanoyl)piperazin-1-yl]phenyl}benzene-1-sulfonamide]
AC50 (Homo sapiens, HeLa, 2 h): 8.01 to 9.99 µM

CN(C)S(=O)(=O)c1ccc(S(=O)(=O)Nc2ccccc2N2CCC(c3ccc(Cl)cc3F)CC2)cc1 [Compound A-23, N4-{2-[4-(4-chloro-2-fluorophenyl)piperidin-1-yl]phenyl}-N1,N1-dimethylbenzene-1,4-disulfonamide]
AC50 (Homo sapiens, HeLa, 2 h): ≤ 2 µM

O=S(=O)(Nc1cccc(F)c1N1CCC(CN2C3CCC2COC3)CC1)c1ccc2c(c1)CCC2 [Compound A-882, N-{3-fluoro-2-[4-({3-oxa-8-azabicyclo[3.2.1]octan-8-yl}methyl)piperidin-1-yl]phenyl}-2,3-dihydro-1H-indene-5-sulfonamide]
AC50 (Homo sapiens, HeLa, 2 h): ≤ 2 µM

CN(C)S(=O)(=O)c1ccc(S(=O)(=O)Nc2ccccc2N2CCC3(CC2)COC(C)(C)C3)c(F)c1 [Compound A-653, N4-(2-{3,3-dimethyl-2-oxa-8-azaspiro[4.5]decan-8-yl}phenyl)-3-fluoro-N1,N1-dimethylbenzene-1,4-disulfonamide]
AC50 (Homo sapiens, HeLa, 2 h): 2.01 to 8 µM

Cc1cnc(N2CCC(CN3CCC(F)(F)CC3)CC2)c(C(C)S(=O)(=O)c2ccc3c(c2)CCC3)c1 (single isomer, unassigned) [Compound A-1000, 2-(4-((4,4-difluoropiperidin-1-yl)methyl)piperidin-1-yl)-3-(1-((2,3-dihydro-1H-inden-5-yl)sulfonyl)ethyl)-5-methylpyridine]
AC50: ≥ 10 µM

CC(C)C(=O)N1CCN(c2ccccc2NS(=O)(=O)c2ccc(S(=O)(=O)N(C)C)cc2)CC1 [Compound A-322, N1,N1-dimethyl-N4-{2-[4-(2-methylpropanoyl)piperazin-1-yl]phenyl}benzene-1,4-disulfonamide]
AC50 (Homo sapiens, HeLa, 2 h): 8.01 to 9.99 µM

CC1(C)CC2(CCN(c3ccccc3NS(=O)(=O)c3ccc4c(c3)COC4(C)C)CC2)CO1 [Compound A-700, N-(2-{3,3-dimethyl-2-oxa-8-azaspiro[4.5]decan-8-yl}phenyl)-1,1-dimethyl-1,3-dihydro-2-benzofuran-5-sulfonamide]
AC50 (Homo sapiens, HeLa, 2 h): 2.01 to 8 µM

CN(C)S(=O)(=O)c1ccc(S(=O)(=O)Nc2ccccc2N2CCN(C(=O)[C@@H]3C[C@H]3C(C)(F)F)CC2)cc1 (racemic) [Compound A-463, rac-N4-(2-{4-[(1R,2R)-2-(1,1-difluoroethyl)cyclopropanecarbonyl]piperazin-1-yl}phenyl)-N1,N1-dimethylbenzene-1,4-disulfonamide]
AC50 (Homo sapiens, HeLa, 2 h): 2.01 to 8 µM

CC(C)CN1CCN(c2ccccc2CS(=O)(=O)c2ccc(S(=O)(=O)N(C)C)cc2)CC1 [Compound A-599, N,N-dimethyl-4-({2-[4-(2-methylpropyl)piperazin-1-yl]phenyl}methanesulfonyl)benzene-1-sulfonamide]
AC50 (Homo sapiens, HeLa, 2 h): 2.01 to 8 µM

CC1(C)CC2(CCN(c3ccccc3NS(=O)(=O)C3=Cc4ccccc4OC3)CC2)CO1 [Compound A-675, N-(2-{3,3-dimethyl-2-oxa-8-azaspiro[4.5]decan-8-yl}phenyl)-2H-chromene-3-sulfonamide]
AC50 (Homo sapiens, HeLa, 2 h): ≤ 2 µM

CC(C)(C)C(=O)N1CCN(c2ccccc2NS(=O)(=O)c2ccc(OC(F)(F)F)cc2)CC1 [Compound A-568, N-{2-[4-(2,2-dimethylpropanoyl)piperazin-1-yl]phenyl}-4-(trifluoromethoxy)benzene-1-sulfonamide]
AC50 (Homo sapiens, HeLa, 2 h): 8.01 to 9.99 µM

Reference: US20230104936A1, “TRPML MODULATORS” (Casma Therapeutics, Inc., priority 2019, published 2023)
